The values that follow are results of earlier work, collected in patent publication US20050187172A1, “Combination of a Cox-2 inhibitor and a DNA topoisomerase I inhibitor for treatment of neoplasia” (priority 2003, published 2005).

Where a name gives a salt, the structure may show the parent alone. Read-outs that look alike come from different tables or passages of the source.

The conditions of data set [1]: for Toxicity (reported toxic effects): Table 3, Toxicity column.
The conditions of data set [2]: mice, single IV infusion.
Assay in data set [3]: not given
This is another data set of the same source.

The mark [4] stands for this setting: Grade 2 or higher toxic effects.
The mark [5] stands for this setting: dose limiting hematological toxicity.

As to `CC[C@@]1(O)C(=O)OCc2c1cc1n(c2=O)Cc2cc3c(CN(C)C)c(O)ccc3nc2-1` [Topotecan, 1H-Pyrano[3′,4′:6,7]indolizino[1,2-b]quinoline-3,14(4,H,12H)-dione, 10-[(dimethylamino)methyl]-4-ethyl-4,9-dihydroxy-, (S)-], the “Dose limiting toxicity (DLT)” value in data set [1] (in vivo) is given as “Myelosup-pression dose-”. Besides, the Maximally tolerated dose entry in data set [1] (× 5 d every 3 to 4 wk) is “dose: 1.5 mg/m^2 × 5 d”.

Turning to `CC[C@@]1(O)C(=O)OCc2c1cc1n(c2=O)Cc2cc3c([N+](=O)[O-])cccc3nc2-1` [rubitecan, 1H-Pyrano[3′,4′:6,7]indolizino[1,2-b]quinoline-3,14(4H,12H)-dione, -4-ethyl-4-hydroxy-10-nitro-, (S)-], the Maximum tolerated dose entry in data set [1] (over five consecutive days repeated every week) was “dose: 1.5 mg/m2/day”. Under setting [4], the chemical cystitis entry is given as “cystitis (25%),”; the diarrhea result is “diarrhea (32%), chemical”; the neutropenic sepsis result is “(21%), and weight loss”; the weight loss result is “(18%)”. Under setting [5], the “grade 4 anemia, share of patients” value is on record as “grade 4 anemia in 29%” and the “thrombocytopenia (grade 4), share of patients” value was 18%. Grade 2 or higher.

`CCc1c2c(nc3ccc(OC(=O)N4CCC(N5CCCCC5)CC4)cc13)-c1cc3c(c(=O)n1C2)COC(=O)[C@]3(O)CC` [Irinotecan]: the “Toxicity (reported toxic effects)” value in data set [1] is “Diarrhea and myelosup-”.

For the molecule `O=C1c2c(c3c4ccc(O)cc4n([C@@H]4O[C@H](CO)[C@@H](O)[C@H](O)[C@H]4O)c3c3[nH]c4cc(O)ccc4c23)C(=O)N1NC(CO)CO` [J 107088, 5H-Indolo[2,3-a]pyrrolo[3,4-c]carbazole-5,7(6H)-dione, 12-β-D-glucopyranosyl-12,13-dihydro-2,10-dihydroxy-6-[[2-hydroxy-1-(hydroxymethyl)ethyl]amino]-], the Maximum tolerated dose entry in data set [1] (in vivo) was “dose: 7.5 mg/m2”.

On to `CN(C)CCNC(=O)c1cccc2cc3ccccc3nc12.Cl.Cl` [XR-5000, 4-Acridinecarboxamide, N-[2-(dimethylamino)ethyl]-, dihydrochloride], for which the “Toxicity (reported toxic effects)” value in data set [1] is recorded as “infusion-related arm pain”.

On to `CC[C@@]1(O)C(=O)OCc2c1cc1n(c2=O)Cc2cc3c(CN(C)C)c(O)ccc3nc2-1` [Topotecan hydrochloride, (S)-10-((dimethylamino)methyl)-4-ethyl-4,9-dihydroxy-1H-pyrano (3′,4′:6,7)indolizino(1,2-B)quinoline-3,14-(4H,12H)-dione monohydrochloride], for which, in data set [1] (in vivo), the “Dose limiting toxicity (DLT)” value is recorded as “DLT: Bone marrow sup-”. For the same molecule, the LD10 result in data set [2] is on record as “pression. LD10: mice 75 mg/m^2”.

On to `CCc1c2c(nc3ccc(OC(=O)N4CCC(N5CCCCC5)CC4)cc13)-c1cc3c(c(=O)n1C2)COC(=O)[C@]3(O)CC` [Irinotecan hydrochloride, (4S)-4,11-diethyl-4-hydroxy-9-((4-piperidinopiperidino)carbonyloxy)-1H-pyrano(3′,4′:6,7)indolizino(1,2-b)quinoline-3,14(4H,12H)dione hydrochloride.], for which the Lethality in mice entry in data set [3] is reported as “Lethality in mice: 111 mg/kg”.

Take `CC[C@@]1(O)C(=O)OCc2c1cc1n(c2=O)Cc2c-1nc1cc3c(cc1c2CN1CCN(C)CC1)OCCO3` [GG211]: the “Dose limiting toxicity (DLT)” value in data set [1] (in vivo) is “Hematologic toxicity”.

In the case of `CC[C@@]1(O)C(=O)OCc2c1cc1n(c2=O)Cc2cc3c(N)cccc3nc2-1` [9-aminocamptothecin, 1H-Pyrano[3′,4′:6,7]indolizino[1,2-b]quinoline-3,14(4H,12H)-dione, 10-amino-4-ethyl-4-hydroxy-, (S)-], in data set [1] (in vivo), the “Dose limiting toxicity (DLT)” value is recorded as “neutropenia” and the Maximum tolerated dose is recorded as 45 mug/square mug/square metre/hr.
